pKi: −log10 of the molar value. Counter-ions that a name gives are not always drawn.
target: T1, cloned human dopamine D2Long receptors (Homo sapiens, UniProt P14416); assay: biochemical; type: binding; settings: not given
T1 construct: expressed in transfected cells; membranes used
T1 sequence (P14416 whole entry): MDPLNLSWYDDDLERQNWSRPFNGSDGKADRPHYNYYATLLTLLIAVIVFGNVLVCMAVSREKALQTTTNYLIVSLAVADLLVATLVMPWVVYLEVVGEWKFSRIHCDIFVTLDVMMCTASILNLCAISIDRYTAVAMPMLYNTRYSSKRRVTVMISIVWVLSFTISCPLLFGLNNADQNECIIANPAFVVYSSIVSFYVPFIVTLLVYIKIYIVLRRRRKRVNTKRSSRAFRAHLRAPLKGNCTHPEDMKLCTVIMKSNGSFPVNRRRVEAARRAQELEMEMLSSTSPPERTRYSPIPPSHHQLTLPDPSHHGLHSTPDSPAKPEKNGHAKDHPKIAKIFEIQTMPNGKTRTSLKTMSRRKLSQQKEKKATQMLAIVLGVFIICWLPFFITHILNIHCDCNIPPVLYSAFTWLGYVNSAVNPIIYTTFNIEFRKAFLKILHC

Compound | pKi
O=CNC[C@@H]1O[C@H](C2CCN(CCCC(c3ccc(F)cc3)c3ccc(F)cc3)CC2)Cc2c1ccc1c2OC2(CCCCC2)O1 [Example 28, cis-N-[3-[1-[4,4-Bis-(4-fluorophenyl)butyl]-4-DiDeridinyl]-5,6-(cyclohexylidenedioxy)-3,4-dihydro-1H-2-benzopyran-1-ylmethyl]formamide Oxalate Hemihydrate] | 6.19

same assay, conditions: Binding to Human D2Long Receptors; displacement of [3H]N-methyl spiroperidol (0.4 nM), membranes of transfected Chinese Hamster Ovary cells, 37 °C, 30 min; read-out: Ki

Compound | pKi
CS(=O)(=O)N1CCC([C@@H]2Cc3c(ccc(O)c3O)[C@H](CN)O2)CC1 (relative stereo) [Example 3D, cis-1-(Aminomethyl)-3,4-dihydro-3-(1-methylsulfonyl-4-piperidinyl)-1H-2-benzopyran-5,6-diol Hydrobromide] | 5.38
Br.Br.CC(=O)Oc1ccc2c(c1OC(C)=O)C[C@@H](C1CCN(CCc3ccccc3)CC1)O[C@H]2CN (relative stereo) [Example 4E, cis-1-(Aminomethyl)-5,6-diacetoxy-3,4-dihydro-3-[1-(2-phenylethyl)-4-piperidinyl]-1H-2-benzopyran Dihydrobromide] | 5.82
CCN1CCC([C@@H]2Cc3c(ccc(O)c3O)[C@H](CN)O2)CC1 (relative stereo) [Example 8, cis-1-(Aminomethyl)-3,4-dihydro-3-(1-ethyl-4-piperidinyl)-1H-2-benzopyran-5,6-diol Dihydrobromide] | 5.60
Br.Br.NC[C@@H]1O[C@H](C2CCN(CCCc3noc4cc(F)ccc34)CC2)Cc2c1ccc(O)c2O (relative stereo) [Example 9, cis-1-(Aminomethyl)-3,4-dihydro-3-[1-[3-(6-fluoro-1,2-benzisoxazol-3-yl)propyl]piperidin-4-yl]-1H-2-benzopyran-5,6-diol Dihydrobromide] | 6.75
CNC[C@@H]1O[C@H](C2CCN(CCc3ccc(OC)cc3)CC2)Cc2c1ccc(O)c2O (relative stereo) [Example 10, cis-3,4-Dihydro-3-[1-[2-(4-methoxyphenyl)ethyl]-4-piperidinyl]-1-(N-methylaminomethyl)-1H-2-benzopyran-5,6-diol Dihydrochloride] | 5.60
NC[C@@H]1O[C@H](C2CCN(CCc3cccs3)CC2)Cc2c1ccc(O)c2O (relative stereo) [Example 25, cis-1-Aminomethyl-3,4-dihydro-3-[1-(2-(thiophen-2-yl)-ethyl-4-piperidinyl]-1H-2-benzopyral-5,6-diol Dihydrochloride Hydrate] | 5.68
Cc1ccccc1CCN1CCC([C@@H]2Cc3c(ccc(O)c3O)[C@H](CN)O2)CC1 (relative stereo) [Example 26, cis-1-Aminomethyl-3,4-dihydro-3-[1-[2-(2-methylphenyl)ethyl]-4-piperidinyl]-1H-2-benzopyran-5,6-diol Dihydrochloride] | 6.16
cis-1-(3-[3-[4-[1-(Aminomethyl)-3,4-dihydro-5,6-dihydroxy-1H-2-benzopyran-3-yl]-1-piperidinyl]propoxy]-3-methoxyphenyl)ethanone Dihydrochloride Dihydrate [Example 31] | 5.96
cis-3-[1-[2-(4-Chlorophenyl)ethyl]--4-piperidinyl]-3,4-dihydro-1-(N-methylaminomethyl)-1H-2-benzopyran-5,6-diol dihydrochloride hemihydrate [Example 15] | 6.38

system: CD-1 male mice; assay: Climbing mouse assay (CMA): antagonism of apomorphine-induced climbing; type: in vivo; settings: not given
Experimental: This test may be used as to identify compounds useful in treating psychosis. Costall, B. et al, Eur. J. Pharm. 50: 39-50 (1978); Protais, P., et al., Psychopharmacology 50:1-6 (1976). […] This effect of apomorphine is antagonized by the D2 receptor antagonist.
CD-1 male mice (20-30 grams) are assigned to groups of 8 and individually placed in wire mesh stick cages and allowed one hour for adaptation to new environment. Apomorphine is injected at 1.5 mg/kg subcutaneously which is a dose which causes climbing in all subjects for thirty minutes. Test compounds are administered intraperitoneally thirty minutes prior to the apomorphine administration at a dose of 20 mg/kg.
For evaluation of climbing, three readings are taken at ten, twenty and thirty minutes after apomorphine administration according to the following scale:
The climbing scores are individually totaled (maximal score: 6 per mouse over three readings) and total score of the control (vehicle intraperitoneally (ip) and apomorphine subcutaneous) is set to 100%. ED50 values with 95% confidence limits calculated by a linear regression analysis of some of the compounds of the present invention as well as a standard antipsychotic agent (clozapine) are presented in Table 1.

Compound | ED50 [mg/kg]
NC[C@@H]1O[C@H](C2CCN(CCc3ccccc3)CC2)Cc2c1ccc(O)c2O (relative stereo) [Example 4D, cis-1-(Aminomethyl)-3,4-dihvdro-3-[1-(2-phenylethyl)-4-piperidinyl]-1H-2-benzopyran-5,6-diol Dihydrobromide Sesquihydrate] | 8.1

same assay, conditions: ip, thirty minutes prior to apomorphine 1.5 mg/kg subcutaneously, climbing scored at ten, twenty and thirty minutes, linear regression analysis, read-out: ED50

Compound | ED50 [mg/kg]
Br.Br.CC(=O)Oc1ccc2c(c1OC(C)=O)C[C@@H](C1CCN(CCc3ccccc3)CC1)O[C@H]2CN (relative stereo) [Example 4E, cis-1-(Aminomethyl)-5,6-diacetoxy-3,4-dihydro-3-[1-(2-phenylethyl)-4-piperidinyl]-1H-2-benzopyran Dihydrobromide] | 11.1
Br.Br.CNC[C@@H]1O[C@H](C2CCN(CCc3ccccc3)CC2)Cc2c1ccc(O)c2O (relative stereo) [Example 5, cis-1-(N-Methylaminomethyl)-3,4-dihydro-3-[1-(2-phenylethyl)-4-piperidinyl)-1H-2-benzopyran-5,6-diol Dihydrobromide] | 6.9
Br.Br.NC[C@@H]1O[C@H](C2CCN(CCCc3noc4cc(F)ccc34)CC2)Cc2c1ccc(O)c2O (relative stereo) [Example 9, cis-1-(Aminomethyl)-3,4-dihydro-3-[1-[3-(6-fluoro-1,2-benzisoxazol-3-yl)propyl]piperidin-4-yl]-1H-2-benzopyran-5,6-diol Dihydrobromide] | 16
COc1ccc2c(c1OC)C[C@@H](C1CCN(CCCC(=O)c3ccc(F)cc3)CC1)O[C@H]2CNC=O.Cl (relative stereo) [Example 21, N-[3-[1-[4-(4-Fluorophenyl)-4-oxobutyl]-4-piperidinyl]-3,4-dihydro-5,6-dimethoxy-1H-2-benzopyran-1-ylmethyl]formamide Hydrochloride] | 19.6
CN1CCN(C2=Nc3cc(Cl)ccc3Nc3ccccc32)CC1 [Clozapine, reference compound] | 8.1
